Measured values: patent publication US20060172990A1, “Antibacterial agents” (priority 2002, published 2006)
Converted amounts (≈) assume the structure as drawn.

What was measured:
Assay type in all cases: cell-based
H. influenzae = assay: MIC by agar plate dilution against clinical isolates of H. influenzae; conditions: Haemophilus influenzae, 2 strains (clinical isolates), Iso-Sensitest agar, 18 to 24 hr, 35° C., read-out: MIC range H. influenzae
Experimental: (§1) Minimal Inhibitory concentrations (MIC) of inhibitors against clinical isolates of S. pneumoniae, H. influenzae and M. catarrhalis obtained from the Public Health and Clinical Microbiology Laboratory, Addenbrooke's Hospital, Hills Road, Cambridge CB2 2QW, UK, were determined by a standard agar plate dilution method following recommendations in British Society for Antimicrobial Chemotherapy Working Party. 1991 “A guide to sensitivity testing British Society for Antimicrobial Chemomtherapy, London, United Kingdom”. Briefly Iso-Sensitest agar (pH 7.2: Oxoid, United Kingdom) was employed supplemented with 5% horse blood (Oxoid) and 20 μg of NAD (Sigma) per ml to support growth of fastidious bacteria. The inoculum used was approximately 10^4 colony forming units of each isolate contained in a volume of 1 μl. Plate were incubated 18 to 24 hr in air, -or for fastidious bacteria an atmosphere enriched with 4-6% carbon dioxide at 35° C. The MIC was determined as the lowest concentration of an antimicrobial tested that inhibited growth of the inoculum, disregarding a single persisting colony or faint haze caused by the inoculation.
(§2) The compounds of the Examples were are antibacterially active in the above assays, The following table states the MIC ranges of the tested compounds against 3 strains of S. pneumoniae, 2 strains of H. influenzae and 1 strain of M. catarrhalis.

S. pneumoniae = assay: MIC by agar plate dilution against clinical isolates of S. pneumoniae; conditions: 3 strains (clinical isolates), Iso-Sensitest agar, 18 to 24 hr, 35° C.
Experimental: as §1, §2

M. catarrhalis = assay: MIC by agar plate dilution against clinical isolate of M. catarrhalis; conditions: Moraxella catarrhalis, 1 strain (clinical isolate), Iso-Sensitest agar, 18 to 24 hr, 35° C.
Experimental: as §1, §2

| MIC (H. influenzae) [µg/mL] | MIC range S. pneumoniae (S. pneumoniae) [µg/mL] | MIC (M. catarrhalis) [µg/mL] | Structure (SMILES) |
| --- | --- | --- | --- |
| > 32 | 1 to 4 | 2 (≈ 4.33 µM) | CC(C)N(CC(=O)Nc1nc2ccccc2s1)NC(=O)[C@H](CC1CCCC1)CN(O)C=O [Example 10, N-Benzothiazol-2-yl-2-{N′-[(2R)-cyclopentylmethyl-3-(formyl-hydroxy-amino)-propionyl]-N-isopropyl-hydrazino)acetamide] |
| 8 (≈ 20.9 µM) | 4 to 16 | 0.5 (≈ 1.31 µM) | CC(C)N(CC(=O)N1CCCC1)NC(=O)[C@H](CC1CCCC1)CN(O)C=O [Example 2] |
|  | 8 to 16 | 2 (≈ 4.88 µM) | Cc1coc(NC(=O)CN(NC(=O)[C@H](CC2CCCC2)CN(O)C=O)C(C)C)n1 [Example 8, 2-{N′-[(2R)-Cyclopentylmethyl-3-(formyl-hydroxy-amino)-propionyl]-N-isopropyl-hydrazino}-N-(4-methyl-oxazol-2-yl)-acetamide] |
| 0.5 to 1 (≈ 1.4 to 2.81 µM) |  | 0.5 (≈ 1.4 µM) | CC(C)N(CC(=O)N(C)C)NC(=O)[C@H](CC1CCCC1)CN(O)C=O [Example 3, 2-{N′-[(2R)-Cyclopentylmethyl-3-(formyl-hydroxy-amino)-propionyl]-N-isopropyl-hydrazino}-N,N-dimethyl-acetamide] |
| > 32 | 1 to 4 | 1 (≈ 1.88 µM) | CC(C)N(CC(=O)N1CCN(Cc2ccc3c(c2)OCO3)CC1)NC(=O)[C@H](CC1CCCC1)CN(O)C=O [Example 5, N-(2-{N′-[(2R)-(4-Benzo[1,3]dioxol-5-ylmethyl-piperazin-1-yl)-2-oxo-ethyl]-N′-isopropyl-hydrazinocarbonyl}-3-cyclopentylpropyl)-N-hydroxy formamide] |
| 32 (≈ 63.4 µM) | 1 to 2 | 0.5 (≈ 0.991 µM) | COc1cc2c(cc1OC)CN(C(=O)CN(NC(=O)[C@H](CC1CCCC1)CN(O)C=O)C(C)C)CC2 [Example 4, N-{3-Cyclopentyl-(2R)-[N′-[2-(6,7-dimethoxy-3,4-dihydro-1H-isoquinolin-2-yl)-2-oxo-ethyl]-N′-isopropyl-hydrazinocarbonyl}-propyl)-N-hydroxy-formamide] |
| 16 to 32 (≈ 38.9 to 77.8 µM) | 16 to 32 | 2 (≈ 4.86 µM) | CC(C)N(CC(=O)Nc1nccs1)NC(=O)[C@H](CC1CCCC1)CN(O)C=O [Example 7, 2-{N′-[(2R)-Cyclopentylmethyl-3-(formyl-hydroxy-amino)-propionyl]-N-isopropyl-hydrazino}-N-thiazol-2-yl-acetamide] |
| > 32 | 16 to 32 | 2 (≈ 4.7 µM) | Cc1csc(NC(=O)CN(NC(=O)[C@H](CC2CCCC2)CN(O)C=O)C(C)C)n1 [Example 9, 2-{N′-[(2R)-Cyclopentylmethyl-3-(formyl-hydroxy-amino)-propionyl]-N-isopropyl-hydrazino}-N-(4-methyl-thiazol-2-yl)-acetamide] |
| 32 (≈ 78.9 µM) |  | 2 (≈ 4.93 µM) | CC(C)N(CC(=O)Nc1cccnc1)NC(=O)[C@H](CC1CCCC1)CN(O)C=O [Example 6] |
